Source: PubChem BioAssay AID1919009 (Molecular Pharmacology Branch, DTP, NCI, 2023)

Test system: K24384-001-R-PDC complex spheroid growth
Assay: Anticancer human tumor K24384-001-R-PDC patient-derived pancreatic adenocarcinoma cell line growth inhibition [AhR]
Details: for IC50: curve of first compound; for viability, T/C: stronger effect = lower value
Procedure, shortened: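 Agents were dosed in half-log steps down from roughly clinical Cmax, or from 10 microM where Cmax was unknown, alone and with AhR antagonists. Read-out: percent test/control growth of tumor spheroids containing HUVEC and MSC stromal cells.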

[1] = second compound 0.1 µM, first compound 0.0316 µM
[2] = second compound 0.1 µM, first compound 0.1 µM
[3] = second compound 0.316 µM, first compound 0.0316 µM
[4] = second compound 0.316 µM, first compound 0.1 µM
[5] = second compound 1 µM, first compound 0.0316 µM
[6] = second compound 1 µM, first compound 0.1 µM
[7] = second compound 3.16 µM, first compound 0.0316 µM
[8] = second compound 3.16 µM, first compound 0.1 µM
[9] = second compound 10 µM, first compound 0.0316 µM
[10] = second compound 10 µM, first compound 0.1 µM
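Throughout, for viability, T/C: percent of DMSO vehicle-treated spheroid viability set as 100%.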

Cn1ncnc1C1c2n[nH]c(=O)c3cc(F)cc(c23)NC1c1ccc(F)cc1 (stereo not given) + Cc1ccccc1N=Nc1ccc(NC(=O)c2ccnn2C)c(C)c1
IC50 (second compound 0.1 µM): > 100 nM
IC50 (second compound 0.316 µM): > 100 nM
IC50 (second compound 1 µM): > 100 nM
IC50 (second compound 3.16 µM): > 100 nM
IC50 (second compound 10 µM): > 100 nM
viability, T/C (second compound 0.1 µM, first compound 0.000316 µM): 100%
viability, T/C (second compound 0.1 µM, first compound 0.001 µM): 110%
viability, T/C (second compound 0.1 µM, first compound 0.00316 µM): 110%
viability, T/C (second compound 0.1 µM, first compound 0.01 µM): 98.2%
viability, T/C [1]: 79%
viability, T/C [2]: 96.7%
viability, T/C (second compound 0.316 µM, first compound 0.000316 µM): 104%
viability, T/C (second compound 0.316 µM, first compound 0.001 µM): 112%
viability, T/C (second compound 0.316 µM, first compound 0.00316 µM): 75.8%
viability, T/C (second compound 0.316 µM, first compound 0.01 µM): 74.3%
viability, T/C [3]: 67.1%
viability, T/C [4]: 73.5%
viability, T/C (second compound 1 µM, first compound 0.000316 µM): 98.2%
viability, T/C (second compound 1 µM, first compound 0.001 µM): 84.3%
viability, T/C (second compound 1 µM, first compound 0.00316 µM): 73.3%
viability, T/C (second compound 1 µM, first compound 0.01 µM): 72.8%
viability, T/C [5]: 66.3%
viability, T/C [6]: 66%
viability, T/C (second compound 3.16 µM, first compound 0.000316 µM): 86.9%
viability, T/C (second compound 3.16 µM, first compound 0.001 µM): 87.8%
viability, T/C (second compound 3.16 µM, first compound 0.00316 µM): 87.6%
viability, T/C (second compound 3.16 µM, first compound 0.01 µM): 67.4%
viability, T/C [7]: 65.6%
viability, T/C [8]: 62.8%
viability, T/C (second compound 10 µM, first compound 0.000316 µM): 91.8%
viability, T/C (second compound 10 µM, first compound 0.001 µM): 84%
viability, T/C (second compound 10 µM, first compound 0.00316 µM): 102%
viability, T/C (second compound 10 µM, first compound 0.01 µM): 86%
viability, T/C [9]: 82.3%
viability, T/C [10]: 66.2%

NS(=O)(=O)OCC1CC(n2ccc3c(NC4CCc5ccccc54)ncnc32)CC1O (stereo not given) + Cc1ccccc1N=Nc1ccc(NC(=O)c2ccnn2C)c(C)c1
IC50 (second compound 0.1 µM): 932 nM
IC50 (second compound 0.316 µM): 928 nM
IC50 (second compound 1 µM): 732 nM
IC50 (second compound 3.16 µM): 432 nM
IC50 (second compound 10 µM): 427 nM
viability, T/C [1]: 104%
viability, T/C [2]: 117%
viability, T/C (second compound 0.1 µM, first compound 0.316 µM): 96.4%
viability, T/C (second compound 0.1 µM, first compound 1 µM): 47.4%
viability, T/C (second compound 0.1 µM, first compound 3.16 µM): 23.7%
viability, T/C (second compound 0.1 µM, first compound 10 µM): 22.1%
viability, T/C [3]: 104%
viability, T/C [4]: 115%
viability, T/C (second compound 0.316 µM, first compound 0.316 µM): 98.8%
viability, T/C (second compound 0.316 µM, first compound 1 µM): 46.1%
viability, T/C (second compound 0.316 µM, first compound 3.16 µM): 27.3%
viability, T/C (second compound 0.316 µM, first compound 10 µM): 18.3%
viability, T/C [5]: 117%
viability, T/C [6]: 127%
viability, T/C (second compound 1 µM, first compound 0.316 µM): 83.5%
viability, T/C (second compound 1 µM, first compound 1 µM): 39.5%
viability, T/C (second compound 1 µM, first compound 3.16 µM): 24.2%
viability, T/C (second compound 1 µM, first compound 10 µM): 22.6%
viability, T/C [7]: 103%
viability, T/C [8]: 108%
viability, T/C (second compound 3.16 µM, first compound 0.316 µM): 58.3%
viability, T/C (second compound 3.16 µM, first compound 1 µM): 32.7%
viability, T/C (second compound 3.16 µM, first compound 3.16 µM): 24.6%
viability, T/C (second compound 3.16 µM, first compound 10 µM): 20.9%
viability, T/C [9]: 96.2%
viability, T/C [10]: 104%
viability, T/C (second compound 10 µM, first compound 0.316 µM): 59%
viability, T/C (second compound 10 µM, first compound 1 µM): 30.1%
viability, T/C (second compound 10 µM, first compound 3.16 µM): 23.4%
viability, T/C (second compound 10 µM, first compound 10 µM): 20.3%

Nc1ncn(C2CC(O)C(CO)S2)c(=O)n1 (stereo not given) + Cc1ccccc1N=Nc1ccc(NC(=O)c2ccnn2C)c(C)c1
IC50 (second compound 0.1 µM): > 300 nM
IC50 (second compound 0.316 µM): > 300 nM
IC50 (second compound 1 µM): > 300 nM
IC50 (second compound 3.16 µM): > 300 nM
IC50 (second compound 10 µM): > 300 nM
viability, T/C (second compound 0.1 µM, first compound 0.000949 µM): 92.5%
viability, T/C (second compound 0.1 µM, first compound 0.003 µM): 103%
viability, T/C (second compound 0.1 µM, first compound 0.00949 µM): 105%
viability, T/C (second compound 0.1 µM, first compound 0.03 µM): 79.3%
viability, T/C (second compound 0.1 µM, first compound 0.0949 µM): 66%
viability, T/C (second compound 0.1 µM, first compound 0.3 µM): 57.8%
viability, T/C (second compound 0.316 µM, first compound 0.000949 µM): 111%
viability, T/C (second compound 0.316 µM, first compound 0.003 µM): 99.7%
viability, T/C (second compound 0.316 µM, first compound 0.00949 µM): 88.4%
viability, T/C (second compound 0.316 µM, first compound 0.03 µM): 66.2%
viability, T/C (second compound 0.316 µM, first compound 0.0949 µM): 65.8%
viability, T/C (second compound 0.316 µM, first compound 0.3 µM): 54.5%
viability, T/C (second compound 1 µM, first compound 0.000949 µM): 99.3%
viability, T/C (second compound 1 µM, first compound 0.003 µM): 82%
viability, T/C (second compound 1 µM, first compound 0.00949 µM): 68.7%
viability, T/C (second compound 1 µM, first compound 0.03 µM): 78.9%
viability, T/C (second compound 1 µM, first compound 0.0949 µM): 61.5%
viability, T/C (second compound 1 µM, first compound 0.3 µM): 58%
viability, T/C (second compound 3.16 µM, first compound 0.000949 µM): 86.6%
viability, T/C (second compound 3.16 µM, first compound 0.003 µM): 83.3%
viability, T/C (second compound 3.16 µM, first compound 0.00949 µM): 92.6%
viability, T/C (second compound 3.16 µM, first compound 0.03 µM): 63.5%
viability, T/C (second compound 3.16 µM, first compound 0.0949 µM): 53.1%
viability, T/C (second compound 3.16 µM, first compound 0.3 µM): 46.9%
viability, T/C (second compound 10 µM, first compound 0.000949 µM): 100%
viability, T/C (second compound 10 µM, first compound 0.003 µM): 103%
viability, T/C (second compound 10 µM, first compound 0.00949 µM): 87.4%
viability, T/C (second compound 10 µM, first compound 0.03 µM): 82.8%
viability, T/C (second compound 10 µM, first compound 0.0949 µM): 72.4%
viability, T/C (second compound 10 µM, first compound 0.3 µM): 60.7%
